{
  "source": "patent US6172109A",
  "about": "“13-Thia prostaglandins for use in glaucoma therapy” (priority 1998, dated 2001)",
  "key": {"[1]": {"system": "New Zealand (NZA) rabbit eye", "test": "ocular irritation in the New Zealand (NZA) rabbit (Hackett/McDonald scoring)", "format": "in vivo", "method": "Compound II and PGF2α isopropyl ester (PGF2α iPr) were tested for ocular irritation in the New Zealand (NZA) rabbit. The prostaglandins were administered in 30 μL of test formulation. Conjunctival hyperemia, swelling and discharge were evaluated using a system devised to grossly compare the irritation potential of prostaglandins in the NZA rabbit. Using the Hackett/McDonald scoring system (Hackett, R. B. and McDonald, T. O. \"Eye Irritation\" in Dermatotoxicology, 4th edition, Marzulli, F. N. and Maibach, H. I. editors, Hemisphere Publishing Corp., Washington D.C. (1991)), conjunctival hyperemia, conjunctival swelling, and ocular discharge were graded using a slit-lamp prior to compound instillation and 1, 2, 3, and 5 hours after topical ocular instillation of the test compound. The percentage of eyes scoring +2 or greater for all time points was calculated for each parameter (conjunctival hyperemia, conjunctival swelling, and ocular discharge). To facilitate comparison, PGF2α iPr was administered at the same time as the test agent."}, "[2]": {"system": "cynomologus monkey eyes", "test": "IOP-lowering effect in cynomologus monkey eyes (lasered, ocular hypertensive)", "format": "in vivo", "method": "Compound II and PGF2α isopropyl ester (PGF2α iPr) were tested for IOP-lowering effect in cynomologus monkey eyes. The right eyes of the cynomologus monkeys in this study were previously given laser trabeculoplasty to induce ocular hypertension in the lasered eye. Animals had been trained to sit in restraint chairs and conditioned to accept experimental procedures without chemical restraint. IOP was determined with a pneumatonometer after light comeal anesthesia with dilute proparacaine. The test protocol included a five-dose b.i.d. treatment regimen because of the typical delayed response to prostaglandins. The test formulations were administered to the lasered right eyes, and the normal left eyes remained untreated for compound 11, or to both eyes for PGF2α isopropyl ester (PGF2α iPr). Baseline IOP values were determined prior to treatment with the test formulation, and IOP was determined 16 hours after the fourth dose for all compounds, 2, 4, and 6 hours after the fifth dose for compound II, and 1, 3 and 7 hours after the fifth dose for PGF2α iPr. Results are presented in Table 2 as the mean percent reduction of IOP from baseline +/- SEM. Prostaglandins were administered in 30 μL of test formulation."}, "[3]": {"system": "intraocular pressure (IOP)", "conditions": "cited from earlier work"}, "[4]": {"conditions": "3 μg, topical ocular, 1, 2, 3, 5 hours"}, "[5]": {"conditions": "10.0 μg, topical ocular, 1, 2, 3, 5 hours"}, "[6]": {"conditions": "1.0 μg, topical ocular, administered at the same time as the test agent"}, "[7]": {"conditions": "1.0 μg, topical ocular, second of two values, administered at the same time as the test agent"}},
  "note": "Entries after “also recorded” stand apart in the source; their conditions may differ.",
  "data": [
    {"smiles": "CC(C)OC(=O)CCC/C=C\\C[C@@H]1[C@@H](SC[C@@H](O)COc2cccc(Cl)c2)[C@H](O)C[C@@H]1O", "note": "[Compound II, (5Z)-(9S, 11R, 15S)-9, 11, 15-trihydroxy-16-m-chlorophenoxy-13-thia-17,18, 19, 20-tetranor-5-prostenoic acid isopropyl ester]", "values": [
      {"measurement": "% Incidence, Conjunctival Hyperemia (eyes scoring +2 or greater for all time points)", "setting": "[1]; [4]", "value": 0, "unit": "%"},
      {"measurement": "% Incidence, Conjunctival Swelling (eyes scoring +2 or greater for all time points)", "setting": "[1]; [4]", "value": 30, "unit": "%"},
      {"measurement": "% Incidence, Discharge (eyes scoring +2 or greater for all time points)", "setting": "[1]; [4]", "value": 0, "unit": "%"},
      {"measurement": "% Incidence, Conjunctival Hyperemia (eyes scoring +2 or greater for all time points)", "setting": "[1]; [5]", "value": 23, "unit": "%"},
      {"measurement": "% Incidence, Conjunctival Swelling (eyes scoring +2 or greater for all time points)", "setting": "[1]; [5]", "value": 33, "unit": "%"},
      {"measurement": "% Incidence, Discharge (eyes scoring +2 or greater for all time points)", "setting": "[1]; [5]", "value": 5, "unit": "%"},
      {"measurement": "ocular irritation / ocular side effects (in words)", "setting": "[1]; Table 1", "value": "attenuates the ocular side effects; also recorded: low incidence of side effects"},
      {"measurement": "ocular irritation / ocular side effects (in words)", "setting": "[1]; Table 1, listed as 11", "value": "low incidence of ocular irritation"},
      {"measurement": "Percent IOP Reduction +/-SEM", "setting": "[2]; 1.0 μg b.i.d., 2 hours after fifth dose (2/5), baseline IOP 31.6 mm Hg", "value": "13.9 +/- 6.8%"},
      {"measurement": "Percent IOP Reduction +/-SEM", "setting": "[2]; 1.0 μg b.i.d., 4 hours after fifth dose (4/5), baseline IOP 31.6 mm Hg", "value": "8.1 +/- 6.6%"},
      {"measurement": "Percent IOP Reduction +/-SEM", "setting": "[2]; 1.0 μg b.i.d., 6 hours after fifth dose (6/5), baseline IOP 31.6 mm Hg", "value": "10 +/- 6.2%"},
      {"measurement": "Percent IOP Reduction +/-SEM", "setting": "[2]; 1.0 μg b.i.d., 16 hours after fourth dose (16/4), baseline IOP 31.6 mm Hg", "value": "4.6 +/- 6.1%"},
      {"measurement": "Percent IOP Reduction +/-SEM", "setting": "[2]; 3.0 μg b.i.d., 2 hours after fifth dose (2/5), baseline IOP 32.2 mm Hg", "value": 23.3, "unit": "%"},
      {"measurement": "Percent IOP Reduction +/-SEM", "setting": "[2]; 3.0 μg b.i.d., 4 hours after fifth dose (4/5), baseline IOP 32.2 mm Hg", "value": "24.2 +/- 3.6%"},
      {"measurement": "Percent IOP Reduction +/-SEM", "setting": "[2]; 3.0 μg b.i.d., 6 hours after fifth dose (6/5), baseline IOP 32.2 mm Hg", "value": "24.9 +/- 3.4%"},
      {"measurement": "Percent IOP Reduction +/-SEM", "setting": "[2]; 3.0 μg b.i.d., 16 hours after fourth dose (16/4), baseline IOP 32.2 mm Hg", "value": "18.0 +/- 3.0%"},
      {"measurement": "IOP reduction (in words)", "setting": "[2]; for the time period tested, Table 2", "value": "significant degree of IOP reduction"}
    ]},
    {"smiles": "CCCCC[C@H](O)/C=C/[C@@H]1[C@@H](C/C=C\\CCCC(=O)OC(C)C)[C@@H](O)C[C@H]1O", "note": "[PGF2α iPr, PGF2α isopropyl ester, reference compound]", "values": [
      {"measurement": "% Incidence, Conjunctival Hyperemia (eyes scoring +2 or greater for all time points)", "setting": "[1]; [6]", "value": 58, "unit": "%"},
      {"measurement": "% Incidence, Conjunctival Swelling (eyes scoring +2 or greater for all time points)", "setting": "[1]; [6]", "value": 67, "unit": "%"},
      {"measurement": "% Incidence, Discharge (eyes scoring +2 or greater for all time points)", "setting": "[1]; [6]", "value": 47, "unit": "%"},
      {"measurement": "% Incidence, Conjunctival Hyperemia (eyes scoring +2 or greater for all time points)", "setting": "[1]; [7]", "value": 58, "unit": "%"},
      {"measurement": "% Incidence, Conjunctival Swelling (eyes scoring +2 or greater for all time points)", "setting": "[1]; [7]", "value": 63, "unit": "%"},
      {"measurement": "% Incidence, Discharge (eyes scoring +2 or greater for all time points)", "setting": "[1]; [7]", "value": 48, "unit": "%"},
      {"measurement": "ocular irritation / ocular side effects (in words)", "setting": "[1]; Table 1", "value": "relatively high incidence of hyperemia, conjunctival swelling and discharge"},
      {"measurement": "Percent IOP Reduction +/-SEM", "setting": "[2]; 1.0 μg b.i.d., both eyes, 1 hour after fifth dose (1/5), baseline IOP 34.8 mm Hg", "value": 27.6, "unit": "%"},
      {"measurement": "Percent IOP Reduction +/-SEM", "setting": "[2]; 1.0 μg b.i.d., both eyes, 3 hours after fifth dose (3/5), baseline IOP 34.8 mm Hg", "value": "38 +/- 1.7%"},
      {"measurement": "Percent IOP Reduction +/-SEM", "setting": "[2]; 1.0 μg b.i.d., both eyes, 7 hours after fifth dose (7/5), baseline IOP 34.8 mm Hg", "value": "25.6 +/- 14.4%"},
      {"measurement": "Percent IOP Reduction +/-SEM", "setting": "[2]; 1.0 μg b.i.d., both eyes, 16 hours after fourth dose (16/4), baseline IOP 34.8 mm Hg", "value": "5.8 +/- 4.0%"}
    ]},
    {"smiles": "CCCCC[C@H](O)/C=C/[C@@H]1[C@@H](C/C=C\\CCCC(=O)O)[C@@H](O)C[C@H]1O", "note": "[PGF2α]", "values": [
      {"measurement": "IOP lowering (in words)", "setting": "[3]; after topical ocular instillation, background", "value": "known to lower intraocular pressure (IOP)"},
      {"measurement": "side effects (in words)", "setting": "[3]; in vivo", "value": "can cause conjunctival hyperemia and/or edema as well as inflammation"}
    ]}
  ]
}
